Results taken from patent US8598183B2, “Solid state forms of a potent HCV inhibitor” (Boehringer Ingelheim International GmbH, priority 2010, dated 2013).
Marks after values point to notes of the source that are not given here.

Experiments:
[1] = Powder dissolution / solubility of Compound (1) sodium salt in water at different concentrations; format: physicochemical; conditions: for % dissolved / CMC value: water; for CMC value: estimated
Method: Based on thermodynamic solubility of Compound (1), solubility of 0.005-0.01 mg/ml is estimated for Compound (1) sodium salt. […] This unique behavior of high solubility at high drug concentrations is most likely attributable to tendency of the drug substance to self-micellize. A CMC value of 41.4 mM (corresponding to 28 mg/mL) is estimated.

[2] = Solubility of Compound (1) in physiological pH range; thermodynamic solubility; format: physicochemical
Method: Doses of Compound (1) up to 400 to 600 mg per dose may be required to be delivered to obtain exposures necessary for sufficient efficacy in vivo. Based on thermodynamic solubility of Compound (1), solubility of 0.005-0.01 mg/ml is estimated for Compound (1) sodium salt.

[3] = Storage stability of concentrated supersaturated aqueous solutions; format: physicochemical; conditions: 10 month storage at room temperature
Method: This unique behavior of high solubility at high drug concentrations is most likely attributable to tendency of the drug substance to self-micellize. A CMC value of 41.4 mM (corresponding to 28 mg/mL) is estimated.

HCV infection = test: Human clinical trials in HCV-infected patients; format: in vivo
[4] = Powder dissolution testing in pH 6.8 buffer, USP Type II Paddle apparatus; format: physicochemical; conditions: 60 minutes, listed as crystalline Compound (1) sodium salt
[5] = Water content at variable humidity (adsorption curve of VTI measurement); format: physicochemical; conditions: 25° C.
Method: Bruker D-8 Advance X-Ray Powder Diffractometer in parallel beam mode with a scintillation detector and using a variable temperature/humidity stage. Humidity adjusted and equilibrated at 25° C., scans from 2-35° 2-theta, 0.05° 2-theta step size, 4 seconds/step At higher humidity (50% RH, and 85% RH) the diffraction lines in the resulting patterns are shifted consistent with lattice expansion to accommodate more water in the lattice. The amount of water at 50% RH based on the adsorption curve of the VTI measurement is 1.7%, and the amount of water at 85% RH is 4.5%. When the sample is exposed to ambient conditions after high humidity the resulting diffraction pattern is again consistent with that of the starting material.

[6] = Powder dissolution of triturated mixtures in capsules in 500 mL pH 6.8 buffer; format: physicochemical; conditions: capsule
Description: One class of solubilizer excipients, basifiers, act by increasing the microenvironment pH and thereby increasing the local solubility of the drug (for a drug containing an acid moiety). Another class of solubilizer excipients, surfactants, also act by increasing the local solubility of the drug. […] For example, an enhancement in dissolution was obtained when surfactants, for example, sodium lauryl sulfate or Vitamin E TPGS, were used in combination with basifiers, for example, L-arginine, meglumine or L-lysine. […] For example, only 1% drug release was obtained when Compound (1) sodium salt crystalline was present. The % drug release was 54% at 60 minutes in the presence of 100 mg Arginine alone and 59% in the presence of Sodium lauryl sulfate alone (Table 2). However, in presence of 100 mg of Arginine along with 100 mg of Sodium lauryl sulfate, the % drug release increased to 93% at 60 minutes (Table 3) indicating enhancement in dissolution when both surfactant and basifier were used in combination.

Structure (SMILES): Cn1c(C2(NC(=O)c3ccc4c(C5CCCC5)c(-c5ncc(Br)cn5)n(C)c4c3)CCC2)nc2ccc(/C=C/C(=O)[O-])cc21.[Na+] [Compound (1) sodium salt]
- dissolution in water ([1]; concentrations exceeding the CMC value): dissolves completely
- % dissolved ([1]; conc 0.1 mg/ml): 13.4%
- % dissolved ([1]; conc 0.3 mg/ml): 15.0%
- % dissolved ([1]; conc 1.0 mg/ml): 15.4%
- % dissolved ([1]; conc 3.0 mg/ml): 46.6%
- % dissolved ([1]; conc 10.0 mg/ml): 90.0%
- % dissolved ([1]; conc 30.0 mg/ml): 100.0%
- % dissolved ([1]; conc 100.0 mg/ml): 100.0%
- % dissolved ([1]; conc 200.0 mg/ml): 100.0%
- % dissolved ([1]; concentrations ≦1 mg/mL): 15%
- CMC value [1]: 41.4 mM
- CMC value ([1]; corresponding to the mM value): 28 mg/mL
- solubility estimated based on thermodynamic solubility of Compound (1) [2]: 5 to 10 µg/mL
- precipitation of highly concentrated supersaturated solutions [3]: no precipitation observed
- effectiveness in treating HCV-infected patients (HCV infection): demonstrated effectiveness
- % dissolved (kinetic dissolution) [4]: < 5%
- amount of water ([5]; 50% RH): 1.7%
- amount of water ([5]; 85% RH): 4.5%
- % Release, average (range) ([6]; 200 mg drug + Arginine 100 mg, 90 (infinity), n = 4): 54 (40-58) %
- % Release, average (range) ([6]; 200 mg drug + Arginine 100 mg, 15 min, n = 4): 43 (27-53)* %
- % Release, average (range) ([6]; 200 mg drug + Arginine 100 mg, 30 min, n = 4): 54 (39-62) %
- % Release, average (range) ([6]; 200 mg drug + Arginine 100 mg, 60 min, n = 4, listed as Compound (1) Na Salt): 54 (38-60) %
- % Release, average (range) ([6]; 200 mg drug + Arginine 100 mg, 60 min, n = 4, listed as Compound (1) sodium salt crystalline): 54%
- % Release, Average of n = 2 (range) ([6]; 200 mg drug + Arginine + SDS (40 mg + 20 mg), 15 min): 74 (70-78) %
- % Release, Average of n = 2 (range) ([6]; 200 mg drug + Arginine + SDS (40 mg + 20 mg), 30 min): 77 (74-80) %
- % Release, Average of n = 2 (range) ([6]; 200 mg drug + Arginine + SDS (40 mg + 20 mg), 60 min): 76 (74-78) %
- % Release, Average of n = 2 (range) ([6]; 200 mg drug + Arginine + SDS (40 mg + 20 mg), 90 min): 72 (70-74) %
- % Release, Average of n = 2 (range) ([6]; 200 mg drug + Arginine + SDS (100 mg + 100 mg), 15 min): 92 (91-93) %
- % Release, Average of n = 2 (range) ([6]; 200 mg drug + Arginine + SDS (100 mg + 100 mg), 30 min): 93 (93-94) %
- % Release, Average of n = 2 (range) ([6]; 200 mg drug + Arginine + SDS (100 mg + 100 mg), 60 min, listed as Compound (1) Na Salt): 93 (93-93) %
- % Release, Average of n = 2 (range) ([6]; 200 mg drug + Arginine + SDS (100 mg + 100 mg), 60 min, listed as Compound (1) sodium salt crystalline): 93%
- % Release, Average of n = 2 (range) ([6]; 200 mg drug + Arginine + SDS (100 mg + 100 mg), 90 min): 91 (89-92) %
- % Release, Average of n = 2 (range) ([6]; 200 mg drug + Arginine + VitE TPGS (40 mg + 20 mg), 15 min): 62 (61-63) %
- % Release, Average of n = 2 (range) ([6]; 200 mg drug + Arginine + VitE TPGS (40 mg + 20 mg), 30 min): 64 (62-67) %
- % Release, Average of n = 2 (range) ([6]; 200 mg drug + Arginine + VitE TPGS (40 mg + 20 mg), 60 min): 65 (63-68) %
- % Release, Average of n = 2 (range) ([6]; 200 mg drug + Arginine + VitE TPGS (40 mg + 20 mg), 90 min): 63 (60-66) %
- % Release, Average of n = 2 (range) ([6]; 200 mg drug + Arginine + VitE TPGS (100 mg + 100 mg), 15 min): 76 (74-78) %
- % Release, Average of n = 2 (range) ([6]; 200 mg drug + Arginine + VitE TPGS (100 mg + 100 mg), 30 min): 77 (76-78) %
- % Release, Average of n = 2 (range) ([6]; 200 mg drug + Arginine + VitE TPGS (100 mg + 100 mg), 60 min): 78 (78-78) %
- % Release, Average of n = 2 (range) ([6]; 200 mg drug + Arginine + VitE TPGS (100 mg + 100 mg), 90 min): 76 (75-76) %
- % Release, average (range) ([6]; 200 mg drug + Lysine 100 mg, 90 (infinity), n = 4): 44 (33-46) %
- % Release, average (range) ([6]; 200 mg drug + Lysine 100 mg, 15 min, n = 4): 18 (9-27) %
- % Release, average (range) ([6]; 200 mg drug + Lysine 100 mg, 60 min, n = 4): 47 (33-54) %
- % Release, Average of n = 2 (range) ([6]; 200 mg drug + Lysine + SDS (40 mg + 20 mg), 15 min): 75 (74-77) %
- % Release, Average of n = 2 (range) ([6]; 200 mg drug + Lysine + SDS (40 mg + 20 mg), 30 min): 77 (76-78) %
- % Release, Average of n = 2 (range) ([6]; 200 mg drug + Lysine + SDS (40 mg + 20 mg), 60 min): 75 (74-75) %
- % Release, Average of n = 2 (range) ([6]; 200 mg drug + Lysine + SDS (40 mg + 20 mg), 90 min): 72 (70-74) %
- % Release, Average of n = 2 (range) ([6]; 200 mg drug + Lysine + SDS (100 mg + 100 mg), 15 min): 40 (37-42) %
- % Release, Average of n = 2 (range) ([6]; 200 mg drug + Lysine + SDS (100 mg + 100 mg), 30 min): 74 (67-82) %
